Experiments:
[1] = system: male Wistar rats; test: Glucose tolerance test in rats after single plant extracts (Example 1); type: in vivo, rat
Protocol: An experiment was conducted on 96 male Wistar rats with mean body weight of 381.2±16.6 g, bred at […] in Olsztyn. Each study group consisted of 12 rats. The animals were kept in individual cages in a ventilated room at a constant temperature of about 22° C., controlled relative humidity of about 60% and appropriate lighting (day/night, 12/12 hours). During the experimental period, the animals were fed a standard laboratory rodent mix. Rats were deprived of food 12 hours prior to the first measurement of blood glucose levels, while constant access to water was maintained. On the day of the experiment, the rats were weighed and fasting blood glucose measurements were taken, via a scalpel incision at the tip of the tail. Next, the animals received aqueous solutions of plant extracts, Acarbose, which served as a positive control (PC) or water, which served as a negative control (NC) at pre-defined quantities via a gastric tube. All the plant extracts were provided by […] Investment in a solution form, and were administered according to the following doses: • white mulberry extract (mulberry): 120 mg per 1 kg body weight • bean extract: 100 mg per 1 kg body weight • green coffee extract (coffee): 20 mg per 1 kg body weight • bitter melon extract (melon): 150 mg per 1 kg body weight • pomelo extract: 100 mg per 1 kg body weight • acarbose preparation: 35 mg per 1 kg body weight • arabinose preparation: 25 mg per 1 kg body weight The extract solutions were prepared so as the amount of liquid administered to a sample animal weighing 350 g was 1 mL. Water was administered to the control group in the same manner/volume. […] Statistical analysis using Student's t-test was performed for proper interpretation of results. Each result obtained for a particular product was compared to the analogous result obtained in the negative control (water) group.

[2] = system: male Wistar rats; test: Glucose tolerance test (sucrose or starch) in rats after plant extract combinations I-III (Example 2); type: in vivo, rat
Protocol: Each study group consisted of 10 rats. Rats were kept in individual cages in a ventilated at a constant temperature of about 22° C., controlled relative humidity of about 60% and appropriate lighting (day/night, 12/12 hours). During the experimental period, rats were fed the standard laboratory rodent mix. Rats were deprived of food 12 hours prior to the first measurement of blood glucose levels, while constant access to water was maintained. On the day of the experiment, rats were weighed and fasting blood glucose measurements were taken, via a scalpel incision at the tip of the tail. Next, rats were administered water (negative control), acarbose (positive control) or aqueous solutions of pre-defined combinations of plant extracts, as follows: • acarbose preparation: 35 mg per 1 kg body weight • combination I: white mulberry extract (120 mg per 1 kg body weight)+ bean extract (100 mg per 1 kg body weight)+ green coffee extract (20 mg per 1 kg body weight). • combination II: white mulberry extract (120 mg per 1 kg body weight)+ green coffee extract (20 mg per 1 kg body weight)+ arabinose preparation (25 mg per 1 kg body weight). • combination III: white mulberry extract (120 mg per 1 kg body weight)+ bean extract (100 mg per 1 kg body weight)+ green coffee extract (20 mg per 1 kg body weight)+ arabinose preparation (25 mg per 1 kg body weight). The solutions of the extracts were prepared so that the volume of liquid administered to an animal weighing 350 g was 1 mL. Water was administered to the control group in a similar manner. […] Statistical analysis using Student's t-test was performed for proper interpretation of results. Each result obtained for a particular product was compared to the analogous result obtained in the negative control (water) group. Results are presented in Table 2, below and in FIGS. 5A-5B.

[3] = GLUCOSE load (50% glucose solution), 0 min (fasting)
[4] = STARCH load (40% starch solution), 0 min (fasting)
[5] = SUCROSE load (50% sucrose solution), 0 min (fasting)

Row | Compound | blood glucose level [1, 3] | blood glucose level ([1]; GLUCOSE load, 15 min) | blood glucose level ([1]; GLUCOSE load, 30 min) | blood glucose level ([1]; GLUCOSE load, 60 min) | blood glucose level ([1]; GLUCOSE load, 90 min) | blood glucose level ([1]; GLUCOSE load, 120 min) | blood glucose level ([1]; GLUCOSE load, 180 min) | blood glucose level [1, 4] | blood glucose level ([1]; STARCH load, 15 min) | blood glucose level ([1]; STARCH load, 30 min) | blood glucose level ([1]; STARCH load, 60 min) | blood glucose level ([1]; STARCH load, 90 min) | blood glucose level ([1]; STARCH load, 120 min) | blood glucose level ([1]; STARCH load, 180 min) | blood glucose level [1, 5] | blood glucose level ([1]; SUCROSE load, 15 min) | blood glucose level ([1]; SUCROSE load, 30 min) | blood glucose level ([1]; SUCROSE load, 60 min) | blood glucose level ([1]; SUCROSE load, 90 min) | blood glucose level ([1]; SUCROSE load, 120 min) | other results
1 | C[C@H]1O[C@H](O[C@H]2[C@H](O)[C@@H](O)[C@@H](O[C@H]3[C@H](O)[C@@H](O)C(O)O[C@@H]3CO)O[C@@H]2CO)[C@H](O)[C@@H](O)[C@@H]1N[C@H]1C=C(CO)[C@@H](O)[C@H](O)[C@H]1O (some centres unmarked) [Acarbose] | 95.6 ± 6.37 mg/dL | 168.9 ± 16.33 mg/dL | 163.3 ± 22.35 mg/dL | 158.0 ± 12.91 mg/dL | 157.6 ± 10.20 mg/dL | 137.7 ± 10.07 mg/dL | 106.8 ± 8.59 mg/dL | 93.5 ± 6.36 mg/dL | 120.0 ± 14.97 mg/dL | 114.9 ± 14.48 mg/dL | 100.1 ± 7.28 mg/dL | 95.5 ± 6.17 mg/dL | 94.6 ± 6.02 mg/dL | 90.0 ± 7.03 mg/dL | 94.2 ± 7.43 mg/dL | 120.0 ± 15.80 mg/dL | 114.9 ± 14.48 mg/dL | 100.1 ± 7.28 mg/dL | 95.5 ± 6.17 mg/dL | 94.6 ± 6.02 mg/dL | blood glucose level ([1]; SUCROSE load, 180 min): 90.0 ± 6.21 mg/dL; blood glucose level ([2]; STARCH 40% solution 2 g/kg, 0 min (fasting)): 89.7 ± 6.09 mg/dL; blood glucose level ([2]; STARCH, 15 min): 105.5 ± 9.74 mg/dL; blood glucose level ([2]; STARCH, 30 min): 104.6 ± 4.24 mg/dL; blood glucose level ([2]; STARCH, 60 min): 97.3 ± 7.18 mg/dL; blood glucose level ([2]; STARCH, 90 min): 98.3 ± 6.09 mg/dL; blood glucose level ([2]; STARCH, 120 min): 94.8 ± 6.01 mg/dL; blood glucose level ([2]; STARCH, 180 min): 88.7 ± 4.87 mg/dL; blood glucose level ([2]; SUCROSE 50% solution 2 g/kg, 0 min (fasting)): 84.7 ± 4.81 mg/dL; blood glucose level ([2]; SUCROSE, 15 min): 112.2 ± 8.58 mg/dL; blood glucose level ([2]; SUCROSE, 30 min): 121.1 ± 8.93 mg/dL; blood glucose level ([2]; SUCROSE, 60 min): 116.0 ± 6.87 mg/dL; blood glucose level ([2]; SUCROSE, 90 min): 110.2 ± 6.51 mg/dL; blood glucose level ([2]; SUCROSE, 120 min): 109.0 ± 4.66 mg/dL; blood glucose level ([2]; SUCROSE, 180 min): 101.1 ± 5.34 mg/dL
2 | O=C[C@H](O)[C@@H](O)[C@@H](O)CO [Arabinose, L-Arabinose] | 96.0 ± 3.62 mg/dL | 170.9 ± 19.55 mg/dL | 157.1 ± 20.27 mg/dL | 148.2 ± 18.33 mg/dL | 152.2 ± 11.19 mg/dL | 137.0 ± 8.96 mg/dL | 111.6 ± 14.42 mg/dL | 90.9 ± 5.92 mg/dL | 116.3 ± 8.88 mg/dL | 123.5 ± 12.49 mg/dL | 110.9 ± 7.28 mg/dL | 111.5 ± 4.19 mg/dL | 106.3 ± 6.54 mg/dL | 100.1 ± 6.33 mg/dL | 94.7 ± 7.31 mg/dL | 135.4 ± 14.68 mg/dL | 132.9 ± 15.65 mg/dL | 132.9 ± 9.06 mg/dL | 131.7 ± 7.55 mg/dL | 125.4 ± 6.52 mg/dL | blood glucose level ([1]; SUCROSE load, 180 min): 123.0 ± 7.25 mg/dL

Reference: US11071767B2, “Dietary compositions for reducing blood glucose levels and for weight management” (MARMAR INVESTMENT SP. Z O.O., priority 2014, dated 2021)
